From US6103707A, “9-(2-deoxy-2-fluoro-4-thio-beta-D-arabinofuranosyl)purine derivatives” (Yamasa Corporation, priority 1996, dated 2000)
In brackets after ≈: the same amount, converted by molar mass. Like-named read-outs stand apart in the source and are kept apart here.

Assays:
VZV = experiment: microbe, parasite or virus in culture; format: cell-based, varicella-zoster virus (VZV), Oka strain; conditions: Human alphaherpesvirus 3, Fibroblast, read-out: Antiviral Activity (ED50) VZV
Excerpt: (§1) 6. The rates of plaque-formation inhibition are plotted against the concentrations (in logarithm) of the test agent, and, from this dose--plaque-formation inhibition curve, 50% inhibitory concentration (ED50) of the test agent is obtained. [formula] (2) Anti-Varicella Zoster Virus (VZV) Activity
(§2) 1. Fibroblasts derived from human embryonic lung tissue are subcultured in an Eagle's MEM supplemented with 10% of pseudo fetal calf serum (Mitsubishi Chemical Corp.), by passing at 1: (2-4) split every 4 or 5 days.
(§3) 2. A cell suspension obtained from the parent cells by passing at 1:2 split is seeded on a 12-well multiplate at a rate of 2 ml/well, and incubated in a CO2 -incubator at 37° C. for 4 days.
3. The culture medium is discarded; and 750 microlitters of a serum (5%)-added Eagle's MEM containing 50 to 100 PFU of the Oka strain of VZV is inoculated, thereby allowing the cells to adsorb the virus at 37° C. for 1 hour.
4. The same amount of an MEM containing a test agent is added without discarding the virus liquid, and the resultant is incubated in a CO2 -incubator at 37° C. In general, the test agent is diluted serially by 1/2 log 10.
(§4) 5. After 4-5 day incubation, the culture medium is discarded, and the resultant is dyed with a 0.5% solution of crystal violet; the number of plaques in each well is counted under a stereoscopic light microscope; and the rate of plaque-formation inhibition is obtained from the same equation as is used in the above (1).
6. The rates of plaque-formation inhibition are plotted against the concentrations (in logarithm) of the test agent, and, from this dose--plaque-formation inhibition curve, 50% inhibitory concentration (ED50) of the test agent is obtained.

HSV-1 = experiment: Anti-HSV-1 activity (plaque-formation inhibition in human embryonic lung fibroblasts); format: cell-based, herpes simplex virus 1 (HSV-1), VR-3 strain; conditions: Human alphaherpesvirus 1, Fibroblast, read-out: Antiviral Activity (ED50) HSV-1
Description: (§5) (1) Anti-HSV-1 Activity and Anti-HSV-2 Activity
as §2, §3
(§6) 3. The culture medium is discarded; a Hanks' MEM (250 microlitters) containing 50 to 150 PFU of the VR-3 strain of HSV-1 or the MS strain of HSV-2 is inoculated, thereby allowing the cells to adsorb the virus at 37° C. for 30 minutes; and then the virus liquid is discarded.
(§7) 4. A serum (2.5%)-added Eagle's MEM containing a test agent and 0.8% of methyl cellulose is added; and the resultant is incubated in a CO2 -incubator at 37° C. for 2 to 3 days. In general, the test agent is diluted serially by 1/2 log 10.
(§8) 5. The culture medium is discarded, and the resultant is dyed with a 0.5% solution of crystal violet; the number of plaques in each well is counted under a stereoscopic light microscope; and the rate of plaque-formation inhibition is obtained from the equation below.
as §1

HCMV = experiment: Anti-Human Cytomegalovirus (HCMV) activity (plaque-formation inhibition in human embryonic lung fibroblasts); format: cell-based; conditions: Human betaherpesvirus 5, AD169, Fibroblast, HCMV AD-169 strain, 4 days plus further 4 to 5 days, 50% plaque-formation inhibition, read-out: Antiviral Activity (ED50) HCMV
Description: (3) Anti-Human Cytomegalovirus (HCMV) Activity
as §2
2. A cell suspension obtained from the parent cells by passing at 1:2 split is seeded on a 24-well multiplate at a rate of 0.8 ml/well, and incubated in a CO2 -incubator at 37° C. for 4 days.
3. The culture medium is discarded; and 400 microlitters of a serum (5%)-added Eagle's MEM containing 50 to 100 PFU of the AD-169 strain of HCMV is inoculated, thereby allowing the cells to adsorb the virus at 37° C. for 1 hour.
4. The same amount of an MEM containing a test agent is added without discarding the virus liquid, and the resultant is incubated in a CO2 -incubator at 37° C. for 4 days. In general, the test agent is diluted serially by 1/2 log 10.
5. The culture medium is replaced with a serum (2.5%)-added Eagle's MEM containing the test agent with the same concentration and 0.8% of methyl cellulose, and incubation is continued for a further 4 to 5 days.
as §4, with “6. The” for “5. After 4-5 day incubation, the”, “May-Gruenwald's and Giemsa (×10) solutions;” for “a 0.5% solution of crystal violet;”
7. The rates of plaque-formation inhibition are plotted against the concentrations (in logarithm) of the test agent, and, from this dose--plaque-formation inhibition curve, 50% inhibitory concentration (ED50) of the test agent is obtained.

HSV-2 = experiment: Anti-HSV-2 activity (plaque-formation inhibition in human embryonic lung fibroblasts); format: cell-based, herpes simplex virus 2 (HSV-2), MS strain; conditions: Human alphaherpesvirus 2, Fibroblast, read-out: Antiviral Activity (ED50) HSV-2
Description: as §5, §2, §3, §6, §7, §8, §1

[1] = HSV-1 VR-3 strain, human embryonic lung fibroblasts, 2 to 3 days, 50% plaque-formation inhibition
[2] = HSV-2 MS strain, human embryonic lung fibroblasts, 2 to 3 days, 50% plaque-formation inhibition

SMILES: Nc1nc(O)c2ncn(COC(CO)CO)c2n1 [Control Example 3, ganciclovir, reference compound]
- EC50 (VZV): 3.1 µg/mL (≈ 12.1 µM)
- EC50 (HSV-1; [1]): 0.016 µg/mL (≈ 0.0627 µM)
- EC50 (HCMV): 0.21 µg/mL
- EC50 (HSV-2; [2]): 0.039 µg/mL (≈ 0.153 µM)

SMILES: Nc1nc2c(ncn2COCCO)c(=O)[nH]1 [Control Example 2, acyclovir, reference compound]
- EC50 (HSV-1; [1]): 0.14 µg/mL (≈ 0.622 µM)
- EC50 (HCMV): 6.9 µg/mL
- EC50 (HSV-2; [2]): 0.23 µg/mL (≈ 1.02 µM)

SMILES: Nc1nc2c(ncn2[C@@H]2S[C@H](CO)[C@@H](O)[C@@H]2F)c(=O)[nH]1 [Synthesis Example 3, 9-(2-deoxy-2-fluoro-4-thio-beta-D-arabinofuranosyl)guanine]
- EC50 (VZV): 0.095 µg/mL (≈ 0.315 µM)
- EC50 (HSV-1; [1]): 0.0091 µg/mL (≈ 0.0302 µM)
- EC50 (HCMV): 0.078 µg/mL
- EC50 (HSV-2; [2]): 0.063 µg/mL (≈ 0.209 µM)

SMILES: Nc1ncnc2c1ncn2[C@@H]1S[C@H](CO)[C@@H](O)[C@@H]1F [Synthesis Example 1, 9-(2-deoxy-2-fluoro-4-thio-beta-D-arabinofuranosyl)adenine]
- EC50 (VZV): 3.04 µg/mL (≈ 10.7 µM)
- EC50 (HSV-1; [1]): 1.61 µg/mL (≈ 5.64 µM)
- EC50 (HCMV): 1.41 µg/mL
- EC50 (HSV-2; [2]): 3.07 µg/mL (≈ 10.8 µM)

SMILES: Nc1nc(N)c2ncn([C@@H]3S[C@H](CO)[C@@H](O)[C@@H]3F)c2n1 [Synthesis Example 2, 9-(2-deoxy-2-fluoro-4-thio-beta-D-arabinofuranosyl)-2,6-diaminopurine]
- EC50 (VZV): 0.101 µg/mL (≈ 0.336 µM)
- EC50 (HSV-1; [1]): 0.0057 µg/mL (≈ 0.019 µM)
- EC50 (HCMV): 0.066 µg/mL
- EC50 (HSV-2; [2]): 0.05 µg/mL (≈ 0.166 µM)

SMILES: Nc1ncnc2c1ncn2[C@@H]1O[C@H](CO)[C@@H](O)[C@@H]1O [Control Example 1, araA, reference compound]
- EC50 (VZV): 1.17 µg/mL (≈ 4.38 µM)
- EC50 (HSV-1): 17.1 µg/mL (≈ 64 µM)
- EC50 (HCMV): 6.5 µg/mL
- EC50 (HSV-2): 6.6 µg/mL (≈ 24.7 µM)
